What was measured:
Experiment in all cases: biochemical
Format in all cases: binding
panel of 442 kinases [1] = biological target: T1, panel of 442 kinases (Homo sapiens, UniProt P00533, DEL752-759); details: EGFR(S752-I759del); for remaining activity at 1 µM: read-out: % of control at 1 µM
T1 construct: purchased Ambit Biosciences (scanMAXX KINOMEscan)

panel of 442 kinases [2] = biological target: T2, panel of 442 kinases (Homo sapiens, UniProt P07949); details: kinase RET; for remaining activity at 1 µM: read-out: RET (% of control at 1 µM)
T2 construct: purchased Ambit Biosciences (scanMAXX KINOMEscan)

panel of 442 kinases [3] = biological target: T3, panel of 442 kinases (Homo sapiens, UniProt P16591); details: FER; for remaining activity at 1 µM: read-out: % of control at 1 µM
T3 construct: purchased Ambit Biosciences (scanMAXX KINOMEscan)

panel of 442 kinases [4] = biological target: T4, panel of 442 kinases (Homo sapiens, UniProt P27448); details: kinase MARK3; for remaining activity at 1 µM: read-out: % of control at 1 µM
T4 construct: purchased Ambit Biosciences (scanMAXX KINOMEscan)

panel of 442 kinases [5] = biological target: T5, panel of 442 kinases (Homo sapiens, UniProt P33981); details: kinase TTK; for remaining activity at 1 µM: read-out: TTK (% of control at 1 µM)
T5 construct: purchased Ambit Biosciences (scanMAXX KINOMEscan)
T5 sequence (P33981 1-857): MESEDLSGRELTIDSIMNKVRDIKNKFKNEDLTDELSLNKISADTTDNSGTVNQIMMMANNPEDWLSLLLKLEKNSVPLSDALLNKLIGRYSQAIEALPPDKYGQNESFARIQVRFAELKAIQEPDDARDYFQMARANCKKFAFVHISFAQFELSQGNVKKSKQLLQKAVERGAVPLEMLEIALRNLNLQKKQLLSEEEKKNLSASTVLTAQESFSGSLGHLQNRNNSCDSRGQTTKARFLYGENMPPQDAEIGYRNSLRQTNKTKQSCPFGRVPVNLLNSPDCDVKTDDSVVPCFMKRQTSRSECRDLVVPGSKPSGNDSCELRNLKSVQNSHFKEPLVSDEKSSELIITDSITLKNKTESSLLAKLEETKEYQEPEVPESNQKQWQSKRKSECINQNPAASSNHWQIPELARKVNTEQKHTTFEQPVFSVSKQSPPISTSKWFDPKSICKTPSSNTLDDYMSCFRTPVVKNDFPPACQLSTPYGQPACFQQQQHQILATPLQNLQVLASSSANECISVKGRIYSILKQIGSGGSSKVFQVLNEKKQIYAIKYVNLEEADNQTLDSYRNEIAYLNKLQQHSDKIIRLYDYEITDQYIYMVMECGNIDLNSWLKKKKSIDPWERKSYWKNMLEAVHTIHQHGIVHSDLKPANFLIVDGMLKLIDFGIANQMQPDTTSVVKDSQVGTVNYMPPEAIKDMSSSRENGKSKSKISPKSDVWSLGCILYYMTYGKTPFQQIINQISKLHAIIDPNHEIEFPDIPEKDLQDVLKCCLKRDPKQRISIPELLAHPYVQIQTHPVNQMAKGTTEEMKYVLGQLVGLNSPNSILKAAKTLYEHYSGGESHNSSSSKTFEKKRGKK

panel of 442 kinases [6] = biological target: T6, panel of 442 kinases (Homo sapiens, UniProt P51617); details: kinase IRAK1; for remaining activity at 1 µM: read-out: % of control at 1 µM
T6 construct: purchased Ambit Biosciences (scanMAXX KINOMEscan)

panel of 442 kinases [7] = biological target: T7, panel of 442 kinases (Homo sapiens, UniProt Q13470); details: kinase TNK1; for remaining activity at 1 µM: read-out: TNK1 (% of control at 1 µM)
T7 construct: purchased Ambit Biosciences (scanMAXX KINOMEscan)
T7 sequence (Q13470 1-666): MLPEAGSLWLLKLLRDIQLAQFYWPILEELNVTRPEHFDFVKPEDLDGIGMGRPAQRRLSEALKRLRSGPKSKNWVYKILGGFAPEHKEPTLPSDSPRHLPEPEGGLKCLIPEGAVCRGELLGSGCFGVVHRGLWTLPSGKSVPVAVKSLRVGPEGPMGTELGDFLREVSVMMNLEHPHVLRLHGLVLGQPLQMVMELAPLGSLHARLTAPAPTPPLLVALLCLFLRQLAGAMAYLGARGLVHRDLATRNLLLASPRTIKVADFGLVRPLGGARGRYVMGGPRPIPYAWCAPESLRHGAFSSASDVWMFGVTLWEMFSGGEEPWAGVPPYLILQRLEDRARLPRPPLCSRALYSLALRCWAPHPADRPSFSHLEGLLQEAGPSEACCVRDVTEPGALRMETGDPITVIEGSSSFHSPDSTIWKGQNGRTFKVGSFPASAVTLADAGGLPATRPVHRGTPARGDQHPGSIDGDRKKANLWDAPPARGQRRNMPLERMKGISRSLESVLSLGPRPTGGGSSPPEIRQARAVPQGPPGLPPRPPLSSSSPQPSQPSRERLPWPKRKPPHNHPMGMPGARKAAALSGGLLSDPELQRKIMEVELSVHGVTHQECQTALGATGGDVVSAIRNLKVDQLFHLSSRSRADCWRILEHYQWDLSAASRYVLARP

panel of 442 kinases [8] = biological target: T8, panel of 442 kinases (Homo sapiens, UniProt Q13554); details: CAMK2B; for remaining activity at 1 µM: read-out: % of control at 1 µM
T8 construct: purchased Ambit Biosciences (scanMAXX KINOMEscan)

panel of 442 kinases [9] = biological target: T9, panel of 442 kinases (Homo sapiens, UniProt Q8TDR2); details: kinase STK35; for remaining activity at 1 µM: read-out: STK35 (% of control at 1 µM)
T9 construct: purchased Ambit Biosciences (scanMAXX KINOMEscan)

panel of 442 kinases [10] = biological target: T10, panel of 442 kinases (Homo sapiens, UniProt Q9BYT3); details: kinase STK33; for remaining activity at 1 µM: read-out: STK33 (% of control at 1 µM)
T10 construct: purchased Ambit Biosciences (scanMAXX KINOMEscan)

panel of 442 kinases [11] = biological target: T11, panel of 442 kinases (Homo sapiens, UniProt Q9H4B4); details: kinase PLK3; for remaining activity at 1 µM: read-out: PLK3 (% of control at 1 µM)
T11 construct: purchased Ambit Biosciences (scanMAXX KINOMEscan)

panel of 442 kinases [12] = biological target: T12, panel of 442 kinases (Homo sapiens, UniProt Q9UEE5); details: DRAK1; for remaining activity at 1 µM: read-out: % of control at 1 µM
T12 construct: purchased Ambit Biosciences (scanMAXX KINOMEscan)
T12 sequence (Q9UEE5 1-414): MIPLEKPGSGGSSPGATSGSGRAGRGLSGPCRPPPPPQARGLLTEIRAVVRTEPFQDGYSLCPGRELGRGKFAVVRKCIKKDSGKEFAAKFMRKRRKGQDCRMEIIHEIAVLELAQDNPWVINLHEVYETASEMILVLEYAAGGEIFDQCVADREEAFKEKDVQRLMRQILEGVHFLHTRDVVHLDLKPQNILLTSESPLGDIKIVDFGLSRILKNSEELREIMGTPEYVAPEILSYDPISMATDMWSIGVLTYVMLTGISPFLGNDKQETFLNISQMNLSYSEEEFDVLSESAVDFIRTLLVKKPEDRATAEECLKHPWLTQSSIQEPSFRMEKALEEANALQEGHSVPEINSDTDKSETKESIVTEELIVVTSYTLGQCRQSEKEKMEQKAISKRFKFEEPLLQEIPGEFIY

[13] = 10 µM, read-out: % of control at 10 µM

T3 sequence (P16591 whole entry): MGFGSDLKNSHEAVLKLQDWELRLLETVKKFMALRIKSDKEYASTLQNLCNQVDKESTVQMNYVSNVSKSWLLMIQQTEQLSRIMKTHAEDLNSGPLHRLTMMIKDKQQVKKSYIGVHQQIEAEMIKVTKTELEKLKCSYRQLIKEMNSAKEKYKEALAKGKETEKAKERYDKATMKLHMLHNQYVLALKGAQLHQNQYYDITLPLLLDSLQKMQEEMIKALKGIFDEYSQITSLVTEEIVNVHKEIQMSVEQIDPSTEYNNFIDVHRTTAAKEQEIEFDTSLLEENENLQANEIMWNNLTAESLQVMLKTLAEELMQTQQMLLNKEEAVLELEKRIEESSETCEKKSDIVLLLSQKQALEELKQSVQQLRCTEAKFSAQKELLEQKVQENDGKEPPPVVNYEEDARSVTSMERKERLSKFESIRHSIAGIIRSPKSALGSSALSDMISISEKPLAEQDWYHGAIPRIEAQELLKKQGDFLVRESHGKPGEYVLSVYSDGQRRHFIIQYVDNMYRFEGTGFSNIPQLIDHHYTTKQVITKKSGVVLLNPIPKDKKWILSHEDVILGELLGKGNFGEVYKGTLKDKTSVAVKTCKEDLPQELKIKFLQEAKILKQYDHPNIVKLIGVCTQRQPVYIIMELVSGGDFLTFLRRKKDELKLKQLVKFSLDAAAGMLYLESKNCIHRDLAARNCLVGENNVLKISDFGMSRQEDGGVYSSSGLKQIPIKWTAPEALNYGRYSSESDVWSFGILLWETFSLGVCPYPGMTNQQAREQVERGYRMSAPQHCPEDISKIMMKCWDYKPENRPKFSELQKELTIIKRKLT
T9 sequence (Q8TDR2 whole entry): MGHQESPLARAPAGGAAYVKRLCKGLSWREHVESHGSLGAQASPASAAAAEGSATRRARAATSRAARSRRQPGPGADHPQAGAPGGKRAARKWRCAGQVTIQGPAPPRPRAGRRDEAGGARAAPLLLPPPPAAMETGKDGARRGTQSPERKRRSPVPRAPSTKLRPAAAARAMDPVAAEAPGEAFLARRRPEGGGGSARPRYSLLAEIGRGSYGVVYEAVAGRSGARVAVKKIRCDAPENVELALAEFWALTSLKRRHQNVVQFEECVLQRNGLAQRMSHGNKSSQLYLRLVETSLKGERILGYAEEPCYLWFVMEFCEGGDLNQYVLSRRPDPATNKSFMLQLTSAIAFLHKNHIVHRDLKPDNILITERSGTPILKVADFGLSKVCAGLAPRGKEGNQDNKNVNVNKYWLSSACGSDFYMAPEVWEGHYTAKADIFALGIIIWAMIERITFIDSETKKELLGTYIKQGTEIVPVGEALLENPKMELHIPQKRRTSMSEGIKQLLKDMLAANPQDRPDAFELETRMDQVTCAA
T2 sequence (P07949 29-1114): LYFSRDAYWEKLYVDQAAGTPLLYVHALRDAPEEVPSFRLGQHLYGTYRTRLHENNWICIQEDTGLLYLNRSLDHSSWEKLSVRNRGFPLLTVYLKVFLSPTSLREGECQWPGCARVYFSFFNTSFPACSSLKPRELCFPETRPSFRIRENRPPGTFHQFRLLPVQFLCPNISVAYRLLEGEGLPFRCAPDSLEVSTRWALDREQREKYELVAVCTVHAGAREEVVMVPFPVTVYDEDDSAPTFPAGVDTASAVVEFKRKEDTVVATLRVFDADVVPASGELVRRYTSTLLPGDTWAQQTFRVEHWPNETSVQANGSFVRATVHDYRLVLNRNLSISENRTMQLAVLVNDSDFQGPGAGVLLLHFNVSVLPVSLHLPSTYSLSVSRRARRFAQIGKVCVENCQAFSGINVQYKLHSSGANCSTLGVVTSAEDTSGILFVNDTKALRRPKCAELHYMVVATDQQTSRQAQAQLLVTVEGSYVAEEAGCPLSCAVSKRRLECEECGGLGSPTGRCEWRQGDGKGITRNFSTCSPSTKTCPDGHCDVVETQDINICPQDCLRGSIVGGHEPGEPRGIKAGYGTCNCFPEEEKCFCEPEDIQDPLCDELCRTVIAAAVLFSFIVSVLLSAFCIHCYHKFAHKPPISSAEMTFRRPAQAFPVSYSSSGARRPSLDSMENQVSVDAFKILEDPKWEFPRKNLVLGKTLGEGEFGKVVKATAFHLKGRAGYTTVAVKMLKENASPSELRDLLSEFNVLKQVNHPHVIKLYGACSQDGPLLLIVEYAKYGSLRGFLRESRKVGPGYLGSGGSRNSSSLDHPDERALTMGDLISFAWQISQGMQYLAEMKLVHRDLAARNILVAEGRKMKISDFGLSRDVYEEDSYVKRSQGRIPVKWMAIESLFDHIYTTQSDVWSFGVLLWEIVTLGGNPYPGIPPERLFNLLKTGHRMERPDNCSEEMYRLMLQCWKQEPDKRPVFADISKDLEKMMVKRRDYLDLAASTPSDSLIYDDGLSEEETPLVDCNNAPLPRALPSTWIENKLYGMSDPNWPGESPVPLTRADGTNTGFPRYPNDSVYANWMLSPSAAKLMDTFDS
T10 sequence (Q9BYT3 whole entry): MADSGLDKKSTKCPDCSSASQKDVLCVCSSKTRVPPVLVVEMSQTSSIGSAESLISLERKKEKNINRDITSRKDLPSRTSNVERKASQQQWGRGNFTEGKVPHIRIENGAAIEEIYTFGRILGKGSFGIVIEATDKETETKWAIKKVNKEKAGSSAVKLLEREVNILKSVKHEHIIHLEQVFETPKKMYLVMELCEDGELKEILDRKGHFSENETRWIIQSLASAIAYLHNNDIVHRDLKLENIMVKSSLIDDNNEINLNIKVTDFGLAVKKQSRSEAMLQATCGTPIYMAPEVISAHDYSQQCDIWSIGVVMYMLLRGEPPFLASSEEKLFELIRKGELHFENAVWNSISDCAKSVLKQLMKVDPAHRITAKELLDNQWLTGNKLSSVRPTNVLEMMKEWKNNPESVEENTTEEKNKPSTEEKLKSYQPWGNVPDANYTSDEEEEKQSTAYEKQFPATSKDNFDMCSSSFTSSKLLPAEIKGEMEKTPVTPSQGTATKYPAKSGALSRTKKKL
T11 sequence (Q9H4B4 whole entry): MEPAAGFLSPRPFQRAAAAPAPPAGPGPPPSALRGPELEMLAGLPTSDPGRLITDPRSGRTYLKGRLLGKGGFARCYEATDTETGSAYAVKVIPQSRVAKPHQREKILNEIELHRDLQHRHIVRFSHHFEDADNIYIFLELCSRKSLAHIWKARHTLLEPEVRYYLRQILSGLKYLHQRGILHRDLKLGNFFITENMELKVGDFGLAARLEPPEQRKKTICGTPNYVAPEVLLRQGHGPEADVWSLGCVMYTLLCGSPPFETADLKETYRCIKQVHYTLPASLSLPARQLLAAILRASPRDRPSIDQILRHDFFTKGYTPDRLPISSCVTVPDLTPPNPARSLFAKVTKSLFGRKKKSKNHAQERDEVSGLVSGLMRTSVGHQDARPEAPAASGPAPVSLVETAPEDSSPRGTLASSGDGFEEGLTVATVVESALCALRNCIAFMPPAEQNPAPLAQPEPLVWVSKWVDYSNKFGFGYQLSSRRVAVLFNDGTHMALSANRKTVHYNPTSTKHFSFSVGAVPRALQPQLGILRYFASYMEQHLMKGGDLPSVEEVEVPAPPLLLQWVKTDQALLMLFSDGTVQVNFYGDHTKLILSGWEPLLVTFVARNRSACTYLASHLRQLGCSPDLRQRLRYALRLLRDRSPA
T1 sequence (P00533 with tags, fused parts or gaps DEL752-759): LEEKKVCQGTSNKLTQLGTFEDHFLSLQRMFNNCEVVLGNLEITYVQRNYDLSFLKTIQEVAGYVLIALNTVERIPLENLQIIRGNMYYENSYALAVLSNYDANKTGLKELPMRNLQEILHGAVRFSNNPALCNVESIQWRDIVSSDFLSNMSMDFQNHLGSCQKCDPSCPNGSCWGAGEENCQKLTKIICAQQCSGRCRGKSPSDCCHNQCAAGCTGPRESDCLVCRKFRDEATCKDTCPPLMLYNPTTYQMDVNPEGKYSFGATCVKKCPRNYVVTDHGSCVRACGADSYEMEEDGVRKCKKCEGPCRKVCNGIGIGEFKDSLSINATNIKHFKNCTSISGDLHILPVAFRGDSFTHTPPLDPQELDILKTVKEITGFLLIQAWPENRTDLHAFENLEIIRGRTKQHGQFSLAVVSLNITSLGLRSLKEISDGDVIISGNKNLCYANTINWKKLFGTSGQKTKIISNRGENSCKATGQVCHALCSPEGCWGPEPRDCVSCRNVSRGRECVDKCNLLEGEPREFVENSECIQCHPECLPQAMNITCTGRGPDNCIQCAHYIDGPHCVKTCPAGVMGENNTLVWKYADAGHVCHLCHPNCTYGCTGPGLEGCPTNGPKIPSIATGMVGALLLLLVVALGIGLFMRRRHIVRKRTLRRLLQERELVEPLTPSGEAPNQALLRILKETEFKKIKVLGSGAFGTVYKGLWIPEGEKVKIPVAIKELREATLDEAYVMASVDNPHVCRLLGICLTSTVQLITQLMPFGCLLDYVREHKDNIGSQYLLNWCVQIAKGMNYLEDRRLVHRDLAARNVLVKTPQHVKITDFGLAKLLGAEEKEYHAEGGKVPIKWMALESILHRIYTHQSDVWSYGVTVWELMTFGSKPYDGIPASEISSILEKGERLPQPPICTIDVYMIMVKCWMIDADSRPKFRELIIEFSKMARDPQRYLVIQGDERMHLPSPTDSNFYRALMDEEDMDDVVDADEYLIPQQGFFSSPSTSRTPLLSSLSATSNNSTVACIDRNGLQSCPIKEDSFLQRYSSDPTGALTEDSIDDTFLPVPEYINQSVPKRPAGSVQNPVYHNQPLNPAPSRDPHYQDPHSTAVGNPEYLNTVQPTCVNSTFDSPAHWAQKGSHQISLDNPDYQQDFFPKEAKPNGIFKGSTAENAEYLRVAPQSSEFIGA

Row | SMILES | remaining activity at 1 µM (panel of 442 kinases [1]) | remaining activity at 1 µM (panel of 442 kinases [2]) | remaining activity at 1 µM (panel of 442 kinases [3]) | remaining activity at 1 µM (panel of 442 kinases [4]) | remaining activity at 1 µM (panel of 442 kinases [5]) | remaining activity at 1 µM (panel of 442 kinases [6]) | remaining activity at 1 µM (panel of 442 kinases [7]) | remaining activity at 1 µM (panel of 442 kinases [8]) | remaining activity at 1 µM (panel of 442 kinases [9]) | remaining activity at 1 µM (panel of 442 kinases [10]) | remaining activity at 1 µM (panel of 442 kinases [11]) | remaining activity at 1 µM (panel of 442 kinases [12]) | also measured
1 | Nc1cc(C(F)(F)F)c(-c2cc(N3CCOCC3)nc(N3CCOCC3)n2)cn1 [Buparlisib] | 83% | 97% | 100% | 97% | 100% | 82% | 100% | 80% | 99% | 90% | 97% | 100% | remaining activity at 10 µM (panel of 442 kinases [1]; [13]): 87%; remaining activity at 10 µM (panel of 442 kinases [2]; 10 µM, read-out: RET (% of control at 10 µM)): 100%; remaining activity at 10 µM (panel of 442 kinases [3]; [13]): 100%; remaining activity at 10 µM (panel of 442 kinases [4]; [13]): 100%; remaining activity at 10 µM (panel of 442 kinases [5]; 10 µM, read-out: TTK (% of control at 10 µM)): 85%; remaining activity at 10 µM (panel of 442 kinases [6]; [13]): 71%; remaining activity at 10 µM (panel of 442 kinases [7]; 10 µM, read-out: TNK1 (% of control at 10 µM)): 100%; remaining activity at 10 µM (panel of 442 kinases [8]; [13]): 79%; remaining activity at 10 µM (panel of 442 kinases [9]; 10 µM, read-out: STK35 (% of control at 10 µM)): 98%; remaining activity at 10 µM (panel of 442 kinases [10]; 10 µM, read-out: STK33 (% of control at 10 µM)): 97%; remaining activity at 10 µM (panel of 442 kinases [11]; 10 µM, read-out: PLK3 (% of control at 10 µM)): 100%; remaining activity at 10 µM (panel of 442 kinases [12]; [13]): 100%
2 | Cn1c(=O)n(-c2ccc(C(C)(C)C#N)cc2)c2c3cc(-c4cnc5ccccc5c4)ccc3ncc21 [Dactolisib, 2-methyl-2-[4-(3-methyl-2-oxo-8-quinolin-3-yl-2,3-dihydroimidazo[4,5-c]quinolin-1-yl)-phenyl] propionitrile] | 100% | 100% | 60% | 100% | 49% | 54% | 88% | 87% | 73% | 100% | 88% | 91% | 
3 | COc1ncc(-c2ccc3nccc(-c4ccnnc4)c3c2)cc1NS(=O)(=O)c1ccc(F)cc1F [Omipalisib] | 100% | 94% | 100% | 100% | 76% | 100% | 100% | 100% | 100% | 100% | 82% | 100% | 
4 | FC(F)c1nc2ccccc2n1-c1nc(N2CCOCC2)nc(N2CCOCC2)n1 [ZSTK474, 2-(difluoromethyl)-1-[4,6-di(4-morpholinyl)-1,3,5-triazin-2-yl]-1H-benzimidazole] | 100% | 100% | 55% | 100% | 100% | 92% | 86% | 100% | 89% | 100% | 83% | 90% | 

— paper PMC5564600 (Oncotarget, 2017)
